Measured values reported in PubChem BioAssay AID328 (DTP/NCI, 2004).
Where “and” joins values, the source holds several entries; their conditions need not be identical. Equal entries are not always repeated. Toxic doses and inconclusive results are not listed.

Test system: BDF1 mice, P388 leukemia ip, median survival T/C
Assay: NCI In Vivo Anticancer Drug Screen. Data for tumor model P388 Leukemia (intraperitoneal) in B6D2F1 (BDF1) mice
Settings: endpoint: median survival time, higher = longer survival
Summary of the method: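 T/C = treated-group survival ÷ vehicle-control survival; tumour transplanted into mice before dosing.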

[1] = dose: 100.0 mg/kg/injection, schedule: Q04DX003 (ip), vehicle: water
[2] = dose: 100.0 mg/kg/injection, schedule: Q04DX003 (ip), vehicle: Klucel (hydroxypropylcellulose) (HPC)
[3] = dose: 200.0 mg/kg/injection, schedule: Q04DX003 (ip), vehicle: Klucel (hydroxypropylcellulose) (HPC)
[4] = dose: 400.0 mg/kg/injection, schedule: Q04DX003 (ip), vehicle: Klucel (hydroxypropylcellulose) (HPC)

Which results are given for `O=P1(N(CCCl)CCCl)NCCCO1` (stereo not drawn)?
T/C (dose: 6.25 mg/kg/injection, schedule: Q01DX009 (ip), vehicle: saline): 120 % of control; T/C (dose: 10.0 mg/kg/injection, schedule: Q01DX010 (ip), vehicle: water): 227 % of control; T/C (dose: 10.0 mg/kg/injection, schedule: Q01DX015 (ip), vehicle: saline): 167 % of control; T/C (dose: 11.25 mg/kg/injection, schedule: Q01DX010 (ip), vehicle: saline): 186 % of control; T/C (dose: 12.5 mg/kg/injection, schedule: Q01DX009 (ip), vehicle: saline): 124 % of control and 206 % of control; T/C (dose: 15.0 mg/kg/injection, schedule: Q01DX015 (ip), vehicle: saline): 202 % of control and 216 % of control; T/C (dose: 20.0 mg/kg/injection, schedule: Q01DX010 (ip), vehicle: saline): 235 % of control and 259 % of control and 280 % of control; T/C (dose: 20.0 mg/kg/injection, schedule: Q01DX010 (ip), vehicle: water): 272 % of control; T/C (dose: 20.0 mg/kg/injection, schedule: Q01DX015 (ip), vehicle: saline): 245 % of control and 219 % of control; T/C (dose: 25.0 mg/kg/injection, schedule: Q01DX009 (ip), vehicle: saline): 257 % of control and 165 % of control; T/C (dose: 25.0 mg/kg/injection, schedule: Q01DX015 (ip), vehicle: saline): 272 % of control and 349 % of control; T/C (dose: 25.0 mg/kg/injection, schedule: Q04DX003 (ip), vehicle: saline): 150 % of control and 179 % of control; T/C (dose: 25.0 mg/kg/injection, schedule: Q04DX003 (ip), vehicle: water): 283 % of control; T/C (dose: 30.0 mg/kg/injection, schedule: Q01DX010 (ip), vehicle: saline): 272 % of control and 300 % of control (2×); T/C (dose: 30.0 mg/kg/injection, schedule: Q01DX015 (ip), vehicle: saline): 356 % of control and 423 % of control; T/C (dose: 31.3 mg/kg/injection, schedule: Q01DX001 (ip), vehicle: saline): 163 % of control; T/C (dose: 37.5 mg/kg/injection, schedule: Q01DX001 (ip), vehicle: saline): 153 % of control; T/C (dose: 50.0 mg/kg/injection, schedule: Q01DX001 (ip), vehicle: saline): 159 % of control and 175 % of control; T/C (dose: 50.0 mg/kg/injection, schedule: Q01DX009 (ip), vehicle: saline): 250 % of control and 111 % of control and 112 % of control; T/C (dose: 50.0 mg/kg/injection, schedule: Q04DX003 (ip), vehicle: saline): 258 % of control and 192 % of control; T/C (dose: 50.0 mg/kg/injection, schedule: Q04DX003 (ip), vehicle: water): 111 % of control; T/C (dose: 50.0 mg/kg/injection, schedule: Q08DX002 (ip), vehicle: saline): 218 % of control; T/C (dose: 62.5 mg/kg/injection, schedule: Q01DX001 (ip), vehicle: saline): 190 % of control; T/C (dose: 70.0 mg/kg/injection, schedule: Q04DX003 (ip), vehicle: saline): 258 % of control and 98 % of control; T/C (dose: 75.0 mg/kg/injection, schedule: Q04DX003 (ip), vehicle: saline): 557 % of control; T/C (dose: 86.4 mg/kg/injection, schedule: Q01DX001 (ip), vehicle: saline): 234 % of control and 117 % of control and 193 % of control; T/C (dose: 89.0 mg/kg/injection, schedule: Q01DX001 (ip), vehicle: saline): 197 % of control; T/C (dose: 100.0 mg/kg/injection, schedule: Q01DX009 (ip), vehicle: saline): 100 % of control and 112 % of control and 113 % of control; T/C [1]: 91 % of control; T/C (dose: 100.0 mg/kg/injection, schedule: Q08DX002 (ip), vehicle: saline): 267 % of control; T/C (dose: 125.0 mg/kg/injection, schedule: Q01DX001 (ip), vehicle: saline): 293 % of control; T/C (dose: 144.0 mg/kg/injection, schedule: Q01DX001 (ip), vehicle: saline): 297 % of control and 541 % of control and 198 % of control; T/C (dose: 180.0 mg/kg/injection, schedule: Q01DX001 (ip), vehicle: water): 244 % of control; T/C (dose: 200.0 mg/kg/injection, schedule: Q04DX003 (ip), vehicle: saline): 103 % of control; T/C (dose: 200.0 mg/kg/injection, schedule: Q08DX002 (ip), vehicle: saline): 270 % of control; T/C (dose: 240.0 mg/kg/injection, schedule: Q01DX001 (ip), vehicle: saline): 290 % of control and 544 % of control; T/C (dose: 300.0 mg/kg/injection, schedule: Q01DX001 (ip), vehicle: water): 268 % of control; T/C (dose: 400.0 mg/kg/injection, schedule: Q08DX002 (ip), vehicle: saline): 88 % of control; T/C (dose: 500.0 mg/kg/injection, schedule: Q01DX001 (ip), vehicle: water): 252 % of control; T/C (dose: 600.0 mg/kg/injection, schedule: Q01DX001 (ip), vehicle: saline): 54 % of control

`COc1cc2c(cc1OC)C(OC)N(C)c1c-2ccc2cc(OC)c(OC)cc12` (stereo not drawn) was tested. Which T/C [1] did it give?
Its T/C is 161 % of control.

What about the T/C (dose: 200.0 mg/kg/injection, schedule: Q04DX003 (ip), vehicle: water) of the same compound?
Its T/C is 161 % of control.

What about the T/C (dose: 300.0 mg/kg/injection, schedule: Q04DX003 (ip), vehicle: water) of the same compound?
The T/C was 166 % of control.

And the T/C (dose: 400.0 mg/kg/injection, schedule: Q04DX003 (ip), vehicle: water)?
The T/C was 102 % of control.

`CCC(=O)/C=C/C1=C(C)CCCC1(C)C` was tested. Which T/C (dose: 50.0 mg/kg/injection, schedule: Q04DX003 (ip), vehicle: saline with Tween-80) did it give?
The T/C was 104 % of control.

And the T/C (dose: 100.0 mg/kg/injection, schedule: Q04DX003 (ip), vehicle: saline with Tween-80)?
The T/C was 104 % of control.

What about the T/C (dose: 200.0 mg/kg/injection, schedule: Q04DX003 (ip), vehicle: saline with Tween-80) of the same compound?
The T/C was 95 % of control.

Which T/C (dose: 37.5 mg/kg/injection, schedule: Q01DX009 (ip), vehicle: saline with Tween-80) does the source give for `Cc1ccn(/C(N)=N/C(=S)Nc2ccccc2)n1` here?
The T/C was 108 % of control.

And the T/C (dose: 75.0 mg/kg/injection, schedule: Q01DX009 (ip), vehicle: saline with Tween-80)?
The T/C was 90 % of control.

What about the T/C (dose: 150.0 mg/kg/injection, schedule: Q01DX009 (ip), vehicle: saline with Tween-80) of the same compound?
The T/C was 114 % of control.

What does the source list for `COc1ccc(-c2cc(C(=O)O)c3cc4ccccc4cc3n2)cc1Br`?
T/C (dose: 100.0 mg/kg/injection, schedule: Q01DX009 (ip), vehicle: saline with Tween-80): 100 % of control; T/C (dose: 200.0 mg/kg/injection, schedule: Q01DX009 (ip), vehicle: saline with Tween-80): 100 % of control; T/C (dose: 400.0 mg/kg/injection, schedule: Q01DX009 (ip), vehicle: saline with Tween-80): 97 % of control; T/C (dose: 600.0 mg/kg/injection, schedule: Q01DX009 (ip), vehicle: saline with Tween-80): 109 % of control

`CCCCCCCCCCCCCCCC(=O)N(CC#N)CC#N` was tested. Which T/C [2] did it give?
Its T/C is 100 % of control.

What about the T/C [3] of the same compound?
Its T/C is 100 % of control.

And the T/C [4]?
Its T/C is 90 % of control.

How did the T/C (dose: 50.0 mg/kg/injection, schedule: Q01DX001 (ip), vehicle: saline with Tween-80) turn out when `COC1CCC(C=O)C(C#N)(C#N)C1(C#N)C#N` (stereo not drawn) was run?
Its T/C is 112 % of control.

And the T/C (dose: 100.0 mg/kg/injection, schedule: Q01DX001 (ip), vehicle: saline with Tween-80)?
Its T/C is 100 % of control.

With `CCOC(=O)C(CC(C)C)NC(=O)C(Cc1ccc(N(CCCl)CCCl)cc1)NC(C)=O` (stereo not drawn) as the compound, how does the T/C (dose: 1.0 mg/kg/injection, schedule: Q01DX009 (ip), vehicle: other) read?
Its T/C is 104 % of control.

And the T/C (dose: 2.0 mg/kg/injection, schedule: Q01DX009 (ip), vehicle: other)?
Its T/C is 109 % of control.

What about the T/C (dose: 8.0 mg/kg/injection, schedule: Q01DX009 (ip), vehicle: other) of the same compound?
Its T/C is 163 % of control.

What about the T/C (dose: 32.0 mg/kg/injection, schedule: Q01DX009 (ip), vehicle: other) of the same compound?
The T/C was 163 % of control.

And the T/C (dose: 64.0 mg/kg/injection, schedule: Q01DX009 (ip), vehicle: other)?
Its T/C is 172 % of control.

What about the T/C (dose: 128.0 mg/kg/injection, schedule: Q01DX009 (ip), vehicle: other) of the same compound?
The T/C was 195 % of control.

What about the T/C (dose: 256.0 mg/kg/injection, schedule: Q01DX009 (ip), vehicle: other) of the same compound?
The T/C was 89 % of control.

With `CCOc1ccc(N2CC(=O)N3CCCC(c4ccccc4)N3C(=O)C2)cc1` (stereo not drawn) as the compound, how does the T/C (dose: 50.0 mg/kg/injection, schedule: Q01DX005 (ip), vehicle: saline with Tween-80) read?
The T/C was 108 % of control.

And the T/C (dose: 100.0 mg/kg/injection, schedule: Q01DX005 (ip), vehicle: saline with Tween-80)?
The T/C was 94 % of control.

What about the T/C (dose: 200.0 mg/kg/injection, schedule: Q01DX005 (ip), vehicle: saline with Tween-80) of the same compound?
Its T/C is 94 % of control.

With `O=C(O)c1ccc(C(=O)c2ccccc2C(=O)O)cc1` as the compound, how does the T/C (dose: 100.0 mg/kg/injection, schedule: Q01DX001 (ip), vehicle: Klucel (hydroxypropylcellulose) (HPC)) read?
The T/C was 95 % of control.

What about the T/C (dose: 100.0 mg/kg/injection, schedule: Q01DX009 (ip), vehicle: Klucel (hydroxypropylcellulose) (HPC)) of the same compound?
The T/C was 91 % of control.

And the T/C [2]?
Its T/C is 104 % of control.

And the T/C (dose: 200.0 mg/kg/injection, schedule: Q01DX001 (ip), vehicle: Klucel (hydroxypropylcellulose) (HPC))?
The T/C was 100 % of control.

What about the T/C (dose: 200.0 mg/kg/injection, schedule: Q01DX009 (ip), vehicle: Klucel (hydroxypropylcellulose) (HPC)) of the same compound?
The T/C was 95 % of control.

And the T/C [3]?
Its T/C is 104 % of control.

And the T/C (dose: 400.0 mg/kg/injection, schedule: Q01DX001 (ip), vehicle: Klucel (hydroxypropylcellulose) (HPC))?
The T/C was 95 % of control.

What about the T/C (dose: 400.0 mg/kg/injection, schedule: Q01DX009 (ip), vehicle: Klucel (hydroxypropylcellulose) (HPC)) of the same compound?
The T/C was 91 % of control.

And the T/C [4]?
The T/C was 109 % of control.
